This note sets out measurements from US10647713B2 (Nimbus Lakshmi, Inc., priority 2016, dated 2020).

Chain of human TYK2 (JH2domain-pseudokinase) (P29597 556-888): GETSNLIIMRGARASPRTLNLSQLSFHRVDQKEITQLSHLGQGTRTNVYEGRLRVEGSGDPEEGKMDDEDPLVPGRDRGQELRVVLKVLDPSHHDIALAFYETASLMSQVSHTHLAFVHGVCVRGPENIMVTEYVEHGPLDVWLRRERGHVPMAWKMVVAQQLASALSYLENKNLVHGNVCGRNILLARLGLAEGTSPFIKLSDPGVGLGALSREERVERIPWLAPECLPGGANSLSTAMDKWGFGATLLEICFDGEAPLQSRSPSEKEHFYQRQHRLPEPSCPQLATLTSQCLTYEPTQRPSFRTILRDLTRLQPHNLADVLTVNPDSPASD

In the test the target is human TYK2 (JH2domain-pseudokinase) (Homo sapiens (Human), UniProt P29597). Briefly: TYK2 JH2 Domain Binding Assay (KINOMEscan, DiscoveRx). As to conditions: 11-point dilution, duplicate. Summed up:
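TYK2 JH2 (G556–D888)–NFkB DBD fusion, DNA-tagged, from HEK293 extracts (<0.1 nM) competed against immobilised biotinylated ligand for 1 h at room temperature, 0.9% DMSO. Bead-retained kinase quantified by qPCR; Kd from 11-point 3-fold series (top 30,000 nM, duplicate), Hill fit with slope −1.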
For orientation: Kd means the free concentration of one partner at which half of the binding sites on the other are occupied at equilibrium, for simple one-to-one binding. `CO[C@@H](C)c1ccc(Nc2cc(NC(=O)C3CC3)nc3[nH]c(C(F)F)nc23)c(S(C)(=O)=O)c1` [I-455, (S)—N-(2-(difluoromethyl)-7-((4-(1-methoxyethyl)-2-(methylsulfonyl)phenyl)amino)-3H-imidazo[4,5-b]pyridin-5-yl)cyclopropanecarboxamide] came in with a dissociation constant Kd of 1 to 10 nM.

The compound `[2H]C([2H])([2H])S(=O)(=O)N(C)c1ccccc1Nc1cc(Nc2cc(C)nc(C)n2)nc2[nH]c(C)nc12` [I-456, N-(2-((5-((2,6-dimethylpyrimidin-4-yl)amino)-2-methyl-3H-imidazo[4,5-b]pyridin-7-yl)amino)phenyl)-N-methylmethanesulfonamide-d3] came in with a Kd of 0.1 to 0.5 nM.

Take `[2H]C([2H])([2H])N(c1ccccc1Nc1cc(Nc2cc(C)nc(C)n2)nc2[nH]c(C(F)F)nc12)S(=O)(=O)C([2H])([2H])[2H]` [I-457, N-(2-((2-(difluoromethyl)-5-((2,6-dimethylpyrimidin-4-yl)amino)-3H-imidazo[4,5-b]pyridin-7-yl)amino)phenyl)-N-(methyl-d3)methanesulfonamide-d3]: the Kd was in the range of 0.1 to 0.5 nM.

The compound `[2H]C([2H])([2H])N(c1ccccc1Nc1cc(Nc2cc(C)nc(C)n2)nc2[nH]c(C)nc12)S(=O)(=O)C([2H])([2H])[2H]` [I-458, N-(2-((5-((2,6-dimethylpyrimidin-4-yl)amino)-2-methyl-3H-imidazo[4,5-b]pyridin-7-yl)amino)phenyl)-N-(methyl-d3)methanesulfonamide-d3] returned a Kd of 0.1 to 0.5 nM.

In the case of `Cc1cn(C)nc1-c1ccc(Nc2cc(NC(=O)[C@@H]3CC3(C)C)nc3[nH]c(C(F)F)nc23)c(S(C)(=O)=O)c1` [I-459, (R)—N-(2-(difluoromethyl)-7-((4-(1,4-dimethyl-1H-pyrazol-3-yl)-2-(methylsulfonyl)phenyl)amino)-3H-imidazo[4,5-b]pyridin-5-yl)-2,2-dimethylcyclopropane-1-carboxamide], the Kd is 1 to 10 nM.

Consider `Cc1cn(C)nc1-c1ccc(Nc2cc(NC(=O)[C@H]3CC3(C)C)nc3[nH]c(C(F)F)nc23)c(S(C)(=O)=O)c1` [I-460, (S)—N-(2-(difluoromethyl)-7-((4-(1,4-dimethyl-1H-pyrazol-3-yl)-2-(methylsulfonyl)phenyl)amino)-3H-imidazo[4,5-b]pyridin-5-yl)-2,2-dimethylcyclopropane-1-carboxamide], for which the Kd was 1 to 10 nM.

`Cc1cn(C)c(-c2ccc(Nc3cc(NC(=O)C4CC4)nc4[nH]c(C)nc34)c(S(C)(=O)=O)c2)n1` [I-461, N-(7-((4-(1,4-dimethyl-1H-imidazol-2-yl)-2-(methylsulfonyl)phenyl)amino)-2-methyl-3H-imidazo[4,5-b]pyridin-5-yl)cyclopropanecarboxamide] yielded a Kd of 0.1 to 0.5 nM.

Turning to `Cc1nc2c(Nc3ccc(-c4ncc(C)n4C)cc3S(C)(=O)=O)cc(NC(=O)C3CC3)nc2[nH]1` [I-462, N-(7-((4-(1,5-dimethyl-1H-imidazol-2-yl)-2-(methylsulfonyl)phenyl)amino)-2-methyl-3H-imidazo[4,5-b]pyridin-5-yl)cyclopropanecarboxamide], the Kd lay within 0.1 to 0.5 nM.

In turn, `Cc1csc(-c2ccc(Nc3cc(Nc4cnc(C)c(C)n4)nc4[nH]c(C(F)F)nc34)c(S(C)(=O)=O)c2)n1` [I-463, 2-(difluoromethyl)-N5-(5,6-dimethylpyrazin-2-yl)-N7-(2-(methylsulfonyl)-4-(4-methylthiazol-2-yl)phenyl)-3H-imidazo[4,5-b]pyridine-5,7-diamine] showed a Kd of 1 to 10 nM.

`Cc1csc(-c2ccc(Nc3cc(Nc4cnc(C)c(C)n4)nc4[nH]c(C)nc34)c(S(C)(=O)=O)c2)n1` [I-464, N5-(5,6-dimethylpyrazin-2-yl)-2-methyl-N7-(2-(methylsulfonyl)-4-(4-methylthiazol-2-yl)phenyl)-3H-imidazo[4,5-b]pyridine-5,7-diamine] had a Kd of 0.5 to 1 nM.
